Earlier results as cited in patent publication US20020143065A1, “Developing a delivery system for multi-pharmaceutical active materials at various release rates” (priority 2000, published 2002).

What was measured:
[1] = gynecological patients, intravenous patient-controlled analgesia
[2] = compared with tramadol racemate

Structure (SMILES)	analgesic efficacy [1]	side effects (nausea and vomiting) [1]	opiate-like analgesic effect [2]
COc1cccc(C2(O)CCCCC2CN(C)C)c1 (racemic) [racemate, tramadol]	more efficacy than (−) tramadol enantiomer	no more side effects than (+) tramadol enantiomer	–
COc1cccc([C@@]2(O)CCCC[C@@H]2CN(C)C)c1 (single isomer, unassigned) [(+) enantiomer, (+) tramadol]	more potent in producing analgesia	produced more nausea and vomiting	considerably enhanced compared with that of tramadol
